Test results as given in US10758542B2, “Substituted pyrazolo[l,5-a]pyrimidine compounds as Trk kinase inhibitors” (Array BioPharma Inc., priority 2009, dated 2020).

Biological target: Human Jak2 kinase domain (Homo sapiens (Human), UniProt O60674)
Assay: Jak2 inhibition assay (Omnia kinase)
Assay type: biochemical
Conditions: read-out: Jak2 Enzyme (% inhibition at 1000 nM), Table 1; at 1000 nM test compound
Excerpt: The assays described in Examples C, D, E and F for the determination of JAK1, JAK2, JAK3 and Tyk2 kinase activity, respectively, utilized the Omnia® Kinase fluorescence peptide substrate-based technology (Invitrogen). The specific components of the assay mixture are described in Examples C, D and E. […] Two-μL aliquots of these were transferred to a fresh plate for a ten-fold intermediate dilution with assay buffer. […] Human Jak2 kinase domain comprising amino acids 808-1132 was purchased from Invitrogen Corporation, Carlsbad, Calif.

Chain of Human Jak2 kinase domain (O60674 808-1132): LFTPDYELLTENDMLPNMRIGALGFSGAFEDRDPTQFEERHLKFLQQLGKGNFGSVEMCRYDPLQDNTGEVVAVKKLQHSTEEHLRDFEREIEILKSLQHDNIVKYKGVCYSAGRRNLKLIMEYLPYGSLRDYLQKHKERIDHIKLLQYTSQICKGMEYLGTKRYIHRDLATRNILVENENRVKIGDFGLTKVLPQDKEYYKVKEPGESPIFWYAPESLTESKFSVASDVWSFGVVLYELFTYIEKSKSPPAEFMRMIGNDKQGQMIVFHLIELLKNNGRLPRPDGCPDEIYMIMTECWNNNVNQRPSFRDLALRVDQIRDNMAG

Row | inhibition at 1 µM [%] | SMILES
1 | 25.2 | C[C@@H](NC(=O)c1cnn2ccc(N3CCC[C@@H]3c3cncc(F)c3)nc12)C(F)(F)F [Example 129, 5-((R)-2-(5-fluoropyridin-3-yl)pyrrolidin-1-yl)-N-((R)-1,1,1-trifluoropropan-2-yl)pyrazolo[1,5-a]pyrimidine-3-carboxamide]
2 | 14.4 | O=C(N[C@@H]1CCC[C@H]1O)c1cnn2ccc(N3CCC[C@@H]3c3cncc(F)c3)nc12 [Example 133, 5-((R)-2-(5-fluoropyridin-3-yl)pyrrolidin-1-yl)-N-((1R,2R)-2-hydroxycyclopentyl)pyrazolo[1,5-a]pyrimidine-3-carboxamide]
3 | 12.5 | CCc1ncc(F)cc1[C@H]1CCCN1c1ccn2ncc(C(=O)N[C@H]3CC[C@H](O)C3)c2n1 [Example 200, 5-((R)-2-(2-ethyl-5-fluoropyridin-3-yl)pyrrolidin-1-yl)-N-((1S,3S)-3-hydroxycyclopentyl)pyrazolo [1,5-a]pyrimidine-3-carboxamide]
4 | 82.5 | CC1(O)CCC(NC(=O)c2cnn3ccc(N4CCC[C@@H]4c4cc(F)ccc4F)nc23)CC1 (stereo partly drawn) [Example 51, 5-((R)-2-(2,5-difluorophenyl)pyrrolidin-1-yl)-N-(4-hydroxy-4-methylcyclohexyl)pyrazolo[1,5-a]pyrimidine-3-carboxamide]
